Publication PMC8036409 (Molecules, 2021)
Counter-ions that a name gives are not always drawn. Like-named read-outs stand apart in the source and are kept apart here.

Legend:
[1] = DPPH free radical scavenging assay; settings: for DPPH Percent Inhibition (Mean ± S.E.M): n = 3
Experimental: (§1) The free radical scavenging capacity of the isolated compounds was determined using DPPH and ABTS assays. To prepare the DPPH stock solution, 30 mg of DPPH was dissolved in 100 mL of methanol. Likewise, to prepare ABTS stock solution, 383 mg of 7 mM ABTS and 66.2 mg of 2.45 mM K2S2O8 were taken, each of them was individually dissolved in 100 mL of methanol and mixed together thoroughly. For the free radical development, the solutions were kept in dark for one day. Different dilutions (62.5, 125, 250, 500, 1000 μg/mL) from each of the sample stock solutions (5 mg/5 mL of methanol) were prepared. Each of the dilutions (0.8 mL) was mixed with 0.8 mL of DPPH stock solution and incubated for 15 min and their absorbance was recorded at 515 nm. Likewise, 0.8 mL of each of the same dilutions was mixed with 2 mL of ABTS solution, incubated for 25 min and their absorbance was recorded at 745 nm. The percent scavenging potentials of compounds were calculated using the following equation:(1) Percent scavenging= A−B/A × 100, where A is the absorbance of oxidized stock (DPPH/ABTS) used as control, and B is the absorbance of the sample.

[2] = ABTS free radical scavenging assay; settings: for ABTS Percent Inhibition (Mean ± S.E.M): n = 3
Experimental: as §1

[3] = target: T1, acetylcholinesterase (AChE) (Homo sapiens, UniProt P22303); assay: biochemical; settings: for inhibition at 125 µg/mL / inhibition at 250 µg/mL / inhibition at 500 µg/mL / inhibition at 1000 µg/mL: read-out: Percent AChE (Mean ± SEM), %inhibition
Experimental: (§2) AChE and BChE were used as representative enzymes to determine the anticholinesterase effect of isolated compounds using Ellman’s assay with slight modifications. Sample stocks (5 mg/5 mL in methanol) were prepared and a range of serial dilutions (125, 250, 500, 1000 μg/mL) was made from each of them. Phosphate buffer (6.8 pH) was used for making the enzyme and substrate solutions.

[4] = target: T2, butyrylcholinesterase (BChE) (Homo sapiens, UniProt P06276); assay: Butyrylcholinesterase inhibition, Ellman's assay; format: biochemical; settings: for inhibition at 125 µg/mL / inhibition at 250 µg/mL / inhibition at 500 µg/mL / inhibition at 1000 µg/mL: read-out: Percent BChE (Mean ± SEM), %inhibition
Experimental: as §2

[5] = target: α-amylase; assay: α-Amylase inhibition assay (DNS method); format: biochemical; settings: for Percent Inhibition of α-Amylase (Mean ± S.E.M): n = 3
Experimental: The degree of inhibition was assessed by quantifying maltose equivalents using a slightly modified dinitrosalicylic acid (DNS) method. From each of the sample dilutions, 1 mL was pre-incubated with 1 U/mL α-amylase for half an hour. After incubation, 1 mL of 1% of starch solution was added to the mixture and further incubated for 10 min. To stop the reaction, 1 mL DNS reagent was added to the reaction mixture and heated in a boiling water bath for 5 min. […] The absorbance was measured at 540 nm.

[6] = target: T1, acetylcholinesterase (AChE); assay: biochemical; settings: read-out: Percent AChE (Mean ± SEM), %inhibition
[7] = target: T2, butyrylcholinesterase (BChE); assay: Butyrylcholinesterase inhibition, Ellman's assay; format: biochemical; settings: read-out: Percent BChE (Mean ± SEM), %inhibition
[8] = read-out: AChE IC50 (converted)

T1 sequence (P22303 32-614, species assumed): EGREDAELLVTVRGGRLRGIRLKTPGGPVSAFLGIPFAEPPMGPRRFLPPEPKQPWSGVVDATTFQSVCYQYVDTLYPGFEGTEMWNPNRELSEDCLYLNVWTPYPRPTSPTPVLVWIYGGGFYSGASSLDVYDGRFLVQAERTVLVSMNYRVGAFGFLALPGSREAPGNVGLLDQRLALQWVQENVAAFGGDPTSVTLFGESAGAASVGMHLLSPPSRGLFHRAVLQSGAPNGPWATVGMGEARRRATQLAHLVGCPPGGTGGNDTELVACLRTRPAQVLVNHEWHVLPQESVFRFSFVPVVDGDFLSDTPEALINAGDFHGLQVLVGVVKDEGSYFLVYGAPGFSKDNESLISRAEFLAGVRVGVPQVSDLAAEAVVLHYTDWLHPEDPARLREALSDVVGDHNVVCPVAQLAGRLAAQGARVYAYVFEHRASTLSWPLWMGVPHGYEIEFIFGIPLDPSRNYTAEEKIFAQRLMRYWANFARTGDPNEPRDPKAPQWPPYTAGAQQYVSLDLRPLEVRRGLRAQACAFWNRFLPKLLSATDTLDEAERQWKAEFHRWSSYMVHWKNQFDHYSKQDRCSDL
T2 sequence (P06276 29-602, species assumed): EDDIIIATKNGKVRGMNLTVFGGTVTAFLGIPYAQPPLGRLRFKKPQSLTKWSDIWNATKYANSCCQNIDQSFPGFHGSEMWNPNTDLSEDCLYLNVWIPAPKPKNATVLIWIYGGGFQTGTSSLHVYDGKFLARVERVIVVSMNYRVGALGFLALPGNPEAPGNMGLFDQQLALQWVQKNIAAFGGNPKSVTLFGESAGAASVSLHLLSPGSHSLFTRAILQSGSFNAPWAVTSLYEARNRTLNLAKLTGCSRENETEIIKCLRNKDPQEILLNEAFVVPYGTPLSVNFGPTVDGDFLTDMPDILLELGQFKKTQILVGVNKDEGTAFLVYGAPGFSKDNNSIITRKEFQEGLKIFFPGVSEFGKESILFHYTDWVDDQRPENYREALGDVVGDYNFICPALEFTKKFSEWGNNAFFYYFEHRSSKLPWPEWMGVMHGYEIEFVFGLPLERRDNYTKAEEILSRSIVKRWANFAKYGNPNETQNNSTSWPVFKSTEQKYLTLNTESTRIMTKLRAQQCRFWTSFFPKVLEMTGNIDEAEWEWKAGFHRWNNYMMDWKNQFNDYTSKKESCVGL

Row | SMILES | DPPH IC50 [1] [µg/mL] | DPPH Percent Inhibition (Mean ± S.E.M) ([1]; 62.5 μg/mL) [%] | DPPH Percent Inhibition (Mean ± S.E.M) ([1]; 250 μg/mL) [%] | DPPH Percent Inhibition (Mean ± S.E.M) ([1]; 500 μg/mL) [%] | DPPH Percent Inhibition (Mean ± S.E.M) ([1]; 1000 μg/mL) [%] | ABTS IC50 [2] [µg/mL] | ABTS Percent Inhibition (Mean ± S.E.M) ([2]; 62.5 μg/mL) [%] | ABTS Percent Inhibition (Mean ± S.E.M) ([2]; 125 μg/mL) [%] | ABTS Percent Inhibition (Mean ± S.E.M) ([2]; 250 μg/mL) [%] | ABTS Percent Inhibition (Mean ± S.E.M) ([2]; 500 μg/mL) [%] | ABTS Percent Inhibition (Mean ± S.E.M) ([2]; 1000 μg/mL) [%] | IC50 [4] [µM] | inhibition at 125 µg/mL [4] [%] | inhibition at 500 µg/mL [4] [%] | inhibition at 1000 µg/mL [4] [%] | α-Amylase IC50 [5] [µg/mL] | Percent Inhibition of α-Amylase (Mean ± S.E.M) ([5]; 62.5 μg/mL) | Percent Inhibition of α-Amylase (Mean ± S.E.M) ([5]; 125 μg/mL) [%] | Percent Inhibition of α-Amylase (Mean ± S.E.M) ([5]; 250 μg/mL) [%] | Percent Inhibition of α-Amylase (Mean ± S.E.M) ([5]; 500 μg/mL) [%] | also measured
1 | CCCCCCCCCCCCCCCCCCCCCC(=O)O [Compound X, docosanoic acid] | 95 | 46.17 ± 3.01 | 60.61 ± 0.71 | 69.19 ± 2.27 | 78.81 ± 2.10 | 95 | 46.01 ± 1.06 | 54.13 ± 0.31 | 60.11 ± 1.90 | 68.99 ± 1.88 | 78.03 ± 1.51 | 382 | 49.13 ± 0.31 | 62 ± 0.78 | 69.1 ± 2.01 | 125 | 40.01 ± 2.06 ^ns % | 50.11 ± 1.31 | 59.11 ± 2.13 | 65.19 ± 1.28 | IC50 [3]: 382 µM; inhibition at 125 µg/mL [3]: 49.3 ± 2.32%; inhibition at 250 µg/mL [3]: 56.1 ± 1.51%; inhibition at 500 µg/mL [3]: 62.5 ± 1.37%; inhibition at 1000 µg/mL [3]: 70.1 ± 1.4%; inhibition at 250 µg/mL [4]: 55.5 ± 0.8%; inhibition at 62.5 µg/mL [6]: 43.2 ± 3.01%; inhibition at 62.5 µg/mL [7]: 43 ± 1.06%
2 | O=COC(O)O [Compound XI, methanetriol mano formate] | 95 | 46.22 ± 0.60 | 62.13 ± 1.08 | 71.17 ± 2.14 | 80.41 ± 2.16 | 95 | 46.23 ± 1.49 | 54.30 ± 1.15 | 61.04 ± 2.38 | 70.15 ± 1.16 | 79.17 ± 0.53 | 815 |  |  |  | 98 | 46.98 ± 2.49 % | 54.13 ± 2.17 | 63.21 ± 1.69 | 70.91 ± 2.11 | DPPH Percent Inhibition (Mean ± S.E.M) ([1]; 125 μg/mL): 54.15 ± 1.28%; inhibition at 250 µg/mL ([3]; 250 μg/mL, n = 3): 64.5 ± 3.04%; inhibition at 500 µg/mL ([3]; 500 μg/mL, n = 3): 71.2 ± 2.42%; inhibition at 1000 µg/mL ([3]; 1000 μg/mL, n = 3): 81.4 ± 2.51%; IC50 [3, 8]: 815 µM; inhibition at 125 µg/mL ([4]; 125 μg/mL, n = 3): 57.1 ± 1.31%; inhibition at 250 µg/mL ([4]; 250 μg/mL, n = 3): 63.7 ± 2.24%; inhibition at 500 µg/mL ([4]; 500 μg/mL, n = 3): 71.2 ± 1.31%; inhibition at 1000 µg/mL ([4]; 1000 μg/mL, n = 3): 81.3 ± 1.41%; Percent Inhibition of α-Amylase (Mean ± S.E.M) ([5]; 1000 μg/mL): 81.90 ± 0.73 %; inhibition at 62.5 µg/mL ([6]; 62.5 μg/mL, n = 3): 48.2 ± 3.34%; inhibition at 62.5 µg/mL ([7]; 62.5 μg/mL, n = 3): 48 ± 2.06%
3 | CC(C)C(C(=O)O)c1ccc(C(C(=O)O)C(C)C)cc1 (stereo not drawn) [Compound XII] | 60 | 51.02 ± 1.30 | 71.13 ± 1.31 | 78.17 ± 1.04 | 86.54 ±2.16 | 62 | 50.51 ± 1.19 | 60.20 ± 3.05 | 71.44 ± 2.11 | 77.15 ± 1.06 | 86.07 ± 1.43 | 216 |  |  |  | 92 | 47.51 ± 1.19 % | 56.10 ± 2.05 | 66.94 ± 1.11 | 74.25 ± 1.06 | DPPH Percent Inhibition (Mean ± S.E.M) ([1]; 125 μg/mL): 61.75 ± 1.78%; inhibition at 125 µg/mL ([3]; 125 μg/mL, n = 3): 61.2 ± 1.71%; inhibition at 250 µg/mL ([3]; 250 μg/mL, n = 3): 69.3 ± 1.38%; inhibition at 500 µg/mL ([3]; 500 μg/mL, n = 3): 76.2 ± 1.01%; inhibition at 1000 µg/mL ([3]; 1000 μg/mL, n = 3): 84.4 ± 1.36%; IC50 [3, 8]: 198 µM; inhibition at 125 µg/mL ([4]; 125 μg/mL, n = 3): 64.4 ± 1.85%; inhibition at 250 µg/mL ([4]; 250 μg/mL, n = 3): 77.1 ± 2.26%; inhibition at 500 µg/mL ([4]; 500 μg/mL, n = 3): 85.1 ± 2.06%; inhibition at 1000 µg/mL ([4]; 1000 μg/mL, n = 3): 93.89 ± 0.81%; Percent Inhibition of α-Amylase (Mean ± S.E.M) ([5]; 1000 μg/mL): 79.07 ± 1.43 %; inhibition at 62.5 µg/mL ([6]; 62.5 μg/mL, n = 3): 52.5 ± 1.47%; inhibition at 62.5 µg/mL ([7]; 62.5 μg/mL, n = 3): 50.4 ± 1.11%
4 | COc1ccc2c3c1O[C@H]1C[C@@H](O)C=C[C@@]31CCN(C)C2 [Galanthamine, reference compound] |  |  |  |  |  |  |  |  |  |  |  |  | 64.4 ± 1.85 | 85.1 ± 2.06 | 93.89 ± 0.81 |  |  |  |  |  | 
